Laboratory results as given in patent US5656613A, “Treatment of hyperandrogenic conditions” (Merck & Co., Inc., priority 1995, dated 1997).
Read-outs that look alike come from different tables or passages of the source.

Tests used:
[1] = target: T1, human type 2 5α-reductase (Homo sapiens, UniProt P31213); assay: Structural requirements / inhibition constants and IC50 on type 2 enzyme (Examples 9 and 11); assay type: biochemical
T1 construct: host or cells: native human prostate tissue or recombinant from a baculovirus expression system; considered interchangeable
T1 sequence (P31213 1-254): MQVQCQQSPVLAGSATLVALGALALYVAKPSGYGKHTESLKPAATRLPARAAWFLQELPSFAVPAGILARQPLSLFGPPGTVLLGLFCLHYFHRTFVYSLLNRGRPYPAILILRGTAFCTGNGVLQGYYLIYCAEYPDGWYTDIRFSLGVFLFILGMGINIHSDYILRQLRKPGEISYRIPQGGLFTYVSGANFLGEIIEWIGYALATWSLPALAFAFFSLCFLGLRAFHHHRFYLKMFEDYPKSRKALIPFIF
Protocol: (§1) The human isozymes were employed exclusively in this research. The native isozymes were from scalp (type 1 ) or prostate (type 2) tissues, and the recombinant forms were produced by a baculovirus expression system. Except where specified, all data refer to the prostate (type 2) isozyme, the primary target of finasteride. All of the experiments described in this application were also conducted with the recombinant type 1 isozyme, either in parallel or for confirmation.
Permutations of three structural changes to finasteride were tested for their ability to abolish time-dependent inhibition. All compounds were tested at their apparent IC50 values at pH 5.5 and 37° C.
(§2) Following the procedures of Example 9, the compounds below were each tested with both human type 1 and type 2 enzyme.

[2] = target: T2, human type 1 5α-reductase (Homo sapiens, UniProt P18405); assay: Inhibition of human type 1 enzyme (Example 11); assay type: biochemical; conditions: for IC50 / kon: Table 2, human type 1
T2 construct: made in house
T2 sequence (P18405 1-259): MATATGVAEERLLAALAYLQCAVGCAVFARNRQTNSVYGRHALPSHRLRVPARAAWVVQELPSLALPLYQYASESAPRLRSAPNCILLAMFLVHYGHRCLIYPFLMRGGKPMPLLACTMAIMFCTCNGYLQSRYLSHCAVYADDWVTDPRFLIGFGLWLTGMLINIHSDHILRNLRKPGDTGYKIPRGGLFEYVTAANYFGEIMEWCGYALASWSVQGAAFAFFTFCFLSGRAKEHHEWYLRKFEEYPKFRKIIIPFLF
Protocol: Permutations of three structural changes to finasteride were tested for their ability to abolish time-dependent inhibition. All compounds were tested at their apparent IC50 values at pH 5.5 and 37° C. Those displaying slow-binding inhibition are identified by kon values, which were determined as described for finasteride above. Those for which no time-dependent inhibition was found are identified by apparent Ki values.
as §2

[3] = target: T3, human 5α-reductase (prostate, type 2) (Homo sapiens, UniProt P31213); assay: Inhibition of 5α-reductase by free NADP-dihydrofinasteride adduct; assay type: biochemical
T3 construct: host or cells: native human prostate tissue or recombinant from a baculovirus expression system; considered interchangeable
T3 sequence (P31213 1-254): T1 sequence (P31213 1-254)
Protocol: as §1

[4] = Nonenzymatic decomposition / stability of NADP-dihydrofinasteride adduct; assay type: physicochemical; conditions: for degraded at 0.235 µM: 0.1m mops, pH 7.2, 235 nM, 0.1M MOPS; for ability to dissociate to [^14 C]-dihydrofinasteride after oxidation: phenazine methosulfate / pyrazine methosulfate
Protocol: The integrity of the NADP-[^14 C]dihydrofinasteride adduct, defined as its ability to form [^14 C]-dihydrofinasteride, was measured by high pressure liquid chromatography on a reverse phase column (VYDAC, 4.6×250 mm, 300 Å, 5 micron, flow rate=1 mL/min) in 60% aqueous methanol. The retention time was about 14 minutes, and was consistently 1.4 min longer than that for [^3 H]finasteride, as determined by co-injection. […] The halflife for decomposition was ~1 min in 0.1M ammonium formate buffer at pH 4.00 and 100° C., and these conditions gave 88% conversion to [^14 C]-dihydrofinasteride at infinite time.
All lines of evidence point to the covalent adduct of inhibitor and cofactor. (1) The absorbance and fluorescence spectra resemble those of NAD(P)H, the NAD-pyruvate complex and analogs and the NAD-cyanide addition complex described by Kaplan, et al. (2) On heating, the compound decomposes to (^14 C)dihydrofinasteride with a rate constant of ~6×10^-4 s^-1 and halflife of 20 min in water at neutral pH and 100° C., explaining the recovery of dihydrofinasteride in the heat-denaturation experiments above. […] (4) Securing the identification, the most prominent parent ion peak in its mass spectrum had the correct charge/mass ratio of 1116 Da.
The rate constant for nonenzymatic breakdown of the covalent intermediate to NADP^+ and dihydrofinasteride was determined under the same conditions used for the enzyme kinetic constants. See Example 5. A constant kx =7.21+0.27×10^-7 s^-1 and a halflife of 11.1±0.4 days at pH 7.2 and 37° C. was calculated. The formation of [^14 C]dihydrofinasteride went to 75% completion at infinite lime, presumably due to competing side reactions like oxidation of the dihydropyridine ring.
The decay of the isolated complex to NADP+ and [^14 C]dihydrofinasteride was measured as a function of time to determine the rate constant for nonenzymatic decomposition of NADP-dihydrofinasteride. The complex (235 nM) was incubated in 0.1M MOPS, 0.1% BSA, and 1 mM EDTA at pH 7.2 and 37° C., and fractions were taken each day and stored at -75° C. These were later analyzed by reverse phase chromatography as described for the assay using a neutral isocratic system of 60% methanol, where [^14 C]dihydrofinasteride has a retention time of 14 min. The y-axis is expressed relative to the total ^14 C-label in each sample injected (2,410 dpm). The reaction went to 0.753 completion at infinite time, as determined by heating at 100° C. The results, as determined by nonlinear regression are consistent with first-order decay with a rate constant kx =7.21+0.27×10^-7 s^-1 and 0.754±0.015 conversion at infinite time as determined by nonlinear regression.

[5] = Partition of released polar component into chloroform; assay type: physicochemical; conditions: released by denaturation in guanidine hydrochloride
Description: Eventually, it became evident that dihydrofinasteride is not the immediate product released upon denaturation of the enzyme-inhibitor complex. Several lines of evidence pointed to release of a much more polar [^3 H]-labeled component. Among these, it was disconcerting that recoveries of [^3 H]dihydrofinasteride on the reverse phase column were often only 35-45% of the radioactivity released from heat-denatured enzyme-inhibitor complex, the remainder never eluting (under acidic conditions). […] It is now clear that this polar intermediate accounts for most, or all, of the radioactivity released by any denaturation method, chromatographs anomalously, and is inadvertently converted to [^3 H]dihydrofinasteride during heat-denaturation.

[6] = comparison with NADP-dihydrofinasteride adduct; cited from earlier work
[7] = target: T4, human prostate (type 2) 5α-reductase (Homo sapiens, UniProt P31213); conditions: read-out: Km for testosterone; native human prostate enzyme, neutral pH; Faller et al.; cited from earlier work
T4 sequence (P31213 1-254): T1 sequence (P31213 1-254)

[8] = target: T4, human prostate (type 2) 5α-reductase; assay: Steady-state enzyme kinetics of substrates; assay type: biochemical; parameters: native prostate enzyme considered interchangeable; conditions: pH 7.2, 37° C.
Description: The model applies in many aspects to both slow-binding, reversible inhibitors and to mechanism-based, irreversible ones.
When tissue extracts were the source of enzyme, the quenched reactions were clarified by centrifugation at 10,000×g before analysis.

[9] = Table 3, human type 2, read-out: kon
[10] = Table 1, pH 5.5, 37° C., no time-dependent inhibition, read-out: Ki (apparent)

SMILES: CC1C[C@H]2NC(=O)C=C[C@]2(C)[C@H]2CC[C@]3(C)CC(Oc4ccc(Cl)cc4)C[C@H]3[C@H]12 (some centres unmarked) [Compound 11]
- IC50 ([1]; Table 3, human type 2): > 10000 nM
- kon [1, 9]: 50 M⁻¹ s⁻¹
- selectivity for human 5α-reductase type 1 [2]: 3,300
- IC50 [2]: 8 nM
- kon [2]: 170000 M⁻¹ s⁻¹

SMILES: CC(C)(C)NC(=O)[C@H]1CC[C@H]2[C@@H]3CC[C@H]4NC(=O)CC[C@]4(C)[C@H]3CC[C@]12C [Compound 2]
- Ki [1, 10]: 8 nM

SMILES: CC(C)(C)NC(=O)[C@H]1CC[C@H]2[C@@H]3CC[C@H]4NC(=O)C(C5C=CN([C@@H]6O[C@H](COP(=O)(O)OP(=O)(O)OC[C@H]7O[C@@H](n8cnc9c(N)ncnc98)[C@H](OP(=O)(O)O)[C@@H]7O)[C@@H](O)[C@H]6O)C=C5C(N)=O)C[C@]4(C)[C@H]3CC[C@]12C (some centres unmarked) [NADP-dihydrofinasteride adduct]
- rate constant for release of adduct from competent enzyme ([3]; bounded by observed decay of enzyme-[^3 H]finasteride complex): ≤ 3e-07 s⁻¹
- rate constant for binding of adduct to free enzyme, k-3 ([3]; extrapolated to zero pyridine-nucleotide cofactor): ~ 1×10^6 M^-1 s^-1
- mode of inhibition ([3]; versus NADPH and testosterone): competitive with the first substrate (NADPH) and independent of saturating concentrations of the second (testosterone)
- half-life ([4]; 0.1M ammonium formate, pH 4.00, 100° C., read-out: halflife for decomposition): ~1 min
- degraded ([4]; 0.1m ammonium formate, pH 4, 0.1M ammonium formate, pH 4.00, 100° C., read-out: conversion to [^14 C]-dihydrofinasteride at infinite time): 88%
- degraded at 0.235 µM ([4]; pH 7.2, 37° C., read-out: conversion at infinite time, by nonlinear regression): 75.4 ± 1.5%
- degraded at 0.235 µM ([4]; pH 7.2, read-out: completion at infinite time, by heating at 100° C.): 75.3%
- storage stability ([4]; ammonium bicarbonate buffer, pH 9, -75° C.): stable for months
- stability relative to NAD-pyruvate counterpart ([4]; oxidation and dissociation): more stable to oxidation, and certainly to dissociation,than its NAD-pyruvate counterpart
- rate constant kx for nonenzymatic breakdown to NADP^+ and dihydrofinasteride ([4]; pH 7.2, 37° C.): 7.21+0.27×10^-7 s^-1
- half-life ([4]; pH 7.2, 37° C., read-out: halflife of nonenzymatic breakdown (converted)): 16000 min
- degraded ([4]; pH 7.2, pH 7.2, 37° C., read-out: completion of formation of [^14 C]dihydrofinasteride at infinite time): 75%
- ability to dissociate to [^14 C]-dihydrofinasteride after oxidation ([4]; listed as NADP-[^14 C]dihydrofinasteride adduct): completely abolished the ability to dissociate to [^14 C]-dihydrofinasteride
- ability to dissociate to [^14 C]-dihydrofinasteride after oxidation ([4]; listed as covalent adduct of inhibitor and cofactor): abolished by treatment with pyrazine methosulfate
- rate constant of decomposition ([4]; water, neutral pH, 100° C.): ~ 6×10^-4 s^-1
- half-life ([4]; water, neutral pH, 100° C., read-out: halflife of decomposition): 20 min
- radioactivity partitioning into chloroform [5]: < 5%

SMILES: COC(=O)[C@H]1CC[C@H]2[C@@H]3CC[C@H]4NC(=O)C=C[C@]4(C)[C@H]3CC[C@]12C [Compound 3]
- kon ([1]; Table 1, pH 5.5, 37° C.): 0.85 10^5 × M^-1 s^-1

SMILES: C[C@]12C=CC(=O)N[C@@H]1CC[C@@H]1[C@@H]2CC[C@]2(C)C(CCC(=O)Nc3ccncc3)CC[C@@H]12 (some centres unmarked) [Compound 12]
- IC50 ([1]; Table 3, human type 2): 3500 nM
- kon [1, 9]: 140 M⁻¹ s⁻¹
- selectivity for human 5α-reductase type 1 [2]: 1,200
- IC50 [2]: 2.8 nM
- kon [2]: 170000 M⁻¹ s⁻¹

SMILES: CN1C(=O)CC[C@]2(C)[C@H]3CC[C@]4(C)[C@@H](C(=O)NC5C6CC7CC(C6)CC5C7)CC[C@H]4[C@@H]3CC[C@@H]12 (some centres unmarked) [Compound 10]
- Ki [1, 10]: 0.5 nM

SMILES: CN1C(=O)C=C[C@]2(C)[C@H]3CC[C@]4(C)[C@@H](C(=O)C5CCCCC5)CC[C@H]4[C@@H]3CC[C@@H]12 [Compound 7]
- Ki [1, 10]: 13 nM

SMILES: COC(=O)[C@H]1CC[C@H]2[C@@H]3CC[C@H]4N(C)C(=O)C=C[C@]4(C)[C@H]3CC[C@]12C [Compound 4]
- Ki [1]: 960 nM

SMILES: C[C@]12C=CC(=O)N[C@@H]1CC[C@@H]1[C@@H]2CC[C@]2(C)C(CC#N)CC[C@@H]12 (some centres unmarked) [Compound 13]
- IC50 ([1]; Table 3, human type 2): 8400 nM
- kon [1, 9]: 140 M⁻¹ s⁻¹
- selectivity for human 5α-reductase type 1 [2]: 1,200
- IC50 [2]: 3 nM
- kon [2]: 180000 M⁻¹ s⁻¹

SMILES: C[C@]12C=CC(=O)N[C@@H]1CC[C@@H]1[C@@H]2CC[C@]2(C)[C@@H](C(=O)C3CCCCC3)CC[C@@H]12 [Compound 5]
- kon ([1]; Table 1, pH 5.5, 37° C.): 28.00 10^5 × M^-1 s^-1

SMILES: CN1C(=O)CC[C@]2(C)[C@H]3CC[C@]4(C)[C@@H](C(=O)C5CCCCC5)CC[C@H]4[C@@H]3CC[C@@H]12 [Compound 8]
- Ki [1, 10]: 0.2 nM

SMILES: NC(=O)C1=CN([C@@H]2O[C@H](COP(=O)(O)OP(=O)(O)OC[C@H]3O[C@@H](n4cnc5c(N)ncnc54)[C@H](O)[C@@H]3O)[C@@H](O)[C@H]2O)C=CC1CC(=O)C(=O)O (some centres unmarked) [NAD-pyruvate adduct]
- stability [6]: so unstable as to preclude normal kinetic measurements

SMILES: C[C@]12C=CC(=O)N[C@@H]1CC[C@@H]1[C@@H]2CC[C@]2(C)[C@@H](C(=O)NC3C4CC5CC(C4)CC3C5)CC[C@@H]12 (some centres unmarked) [Compound 9]
- kon ([1]; Table 1, pH 5.5, 37° C.): 47.00 10^5 × M^-1 s^-1

SMILES: COC(C)C1CC[C@H]2[C@@H]3CC[C@H]4NC(=O)C=C[C@]4(C)[C@H]3CC[C@]12C (some centres unmarked) [Compound 14]
- IC50 ([1]; Table 3, human type 2): 5400 nM
- kon [1, 9]: 130 M⁻¹ s⁻¹
- selectivity for human 5α-reductase type 1 [2]: 1,600
- IC50 [2]: 1.8 nM
- kon [2]: 200000 M⁻¹ s⁻¹

SMILES: C[C@]12CCC(=O)N[C@@H]1CC[C@@H]1[C@@H]2CC[C@]2(C)[C@@H](C(=O)C3CCCCC3)CC[C@@H]12 [Compound 6]
- Ki [1, 10]: 0.3 nM

SMILES: C[C@]12CC[C@H]3[C@@H](CCC4=CC(=O)CC[C@@]43C)[C@@H]1CC[C@@H]2O [testosterone]
- Km [7]: 0.02 ± 0.003 µM
- kcat/Km [8]: 2.99±0.32×10^6 M^-1 s^-1
- turnover number kcat ([8]; by titration with finasteride): 0.075 ± 0.006 s⁻¹
